Experimental findings from US20130133245A1, “OXYGENATE ADDITIVE FOR INTERNAL COMBUSTION ENGINE FUEL, FUEL COMPOSITION COMPRISING THE SAME AND IMPROVED PROCESS FOR PRODUCING HIGHLY METHYLATED GLYCEROL ETHERS” (priority 2011, published 2013) are described below.

The nature of data set [1]: Solubility / miscibility in diesel fuel. The format is physicochemical.
Data set [2] in a line: Solubility in gasoline or aviation turbine fuel. The format is physicochemical.
Data set [3] is described as follows: Density of oxygenate additive (main properties comparison).

Regarding glycerol dimethyl ethers [GDMEs], the “miscibility with diesel fuel” value in data set [1] (too much amount mixed with diesel fuel) is “phase separation”.
As for `COCC(COC)OC` [GTME, glycerol trimethyl ether], in data set [1] (diesel fuel), the “solubility in diesel fuel” value was around 100%. Further, in data set [2], the “dissolution in gasoline or aviation turbine fuel” value was “completely dissolved”.
`COCCOCCOC` [DGM, diethylene glycol dimethyl ether]: in “Flash point”, the Flash point came out at 70 °C. The compound also had a Heat of combustion in “Heat of combustion” of -2.52e+07 J/kg. Besides, the Lower heating value in the data set “Lower heating value” worked out at 24.5 kJ/g. In “Lower flammability limit”, this compound yielded a Lower flammability limit of 1.2 % vol. Also, the Density in data set [3] is 937 kg/m^3.
